In assay [1] the target is T1, PRMT5 (Homo sapiens, UniProt O14744).
T1 construct: purchased Viva (custom protein)
As to the kind of experiment: PRMT5 biochemical IC50 assay with no cofactor. The note with it: PRMT5, no cofactor; read-out: No Cofactor/ rel IC50. An excerpt: Table 1 indicates IC50 values (μM) against PRMT5 for exemplary compounds in the presence of SAM as cofactor, with no cofactor, and with MTA as cofactor, respectively (columns 4-6). […] Ki values can be calculated from the IC50 values as described in the Examples section. As detailed in the Examples section, for the assay performed in the presence of SAM, IC50=Ki×1.5 (Ki=IC50/1.5).

Assay [2] deals with HAP1 MTAP-intact cell line. As to the kind of experiment: SDMA in-cell western assay, HAP1 MTAP-intact. It counts as cell-based. The following applies: Homo sapiens, HAP1, SDMA in-cell western, HAP1 MTAP-intact; read-out: MTAP HAP1 intact IC50. The gist of the method: (§1)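 MTAP-null vs endogenous-MTAP HAP1 isogenic cells; in-cell western SDMA readout; IC50 per line.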
Assay [3] deals with HAP1 MTAP-deleted cell line. The experiment in a line: Viability assay, MTAP-deleted cell line. The note with it: Homo sapiens, HAP1, viability, HAP1 MTAP-deleted cell line; read-out: HAP1 MTAP deleted viability. It counts as cell-based. An excerpt: Table 1 additionally indicates IC50 values in a viability assay for the MTAP-deleted cell line (column 10), indicating the effect of treatment with compound on cell survival.

Assay [4] deals with HAP1 MTAP-deleted cell line. As to the kind of experiment: SDMA in-cell western assay, HAP1 MTAP-deleted. It counts as cell-based. The following applies: for IC50: Homo sapiens, HAP1, SDMA in-cell western, HAP1 MTAP-deleted, read-out: HAP 1 MTAP deleted IC50; for MTAP intact/deleted ratio: IC50 ratio HAP1 MTAP-intact / HAP1 MTAP-deleted, SDMA in-cell western. The gist of the method: as §1

The target of assay [5] is T1, PRMT5. The experiment in a line: PRMT5 biochemical IC50 assay with SAM as cofactor. The note with it: PRMT5, SAM as cofactor; read-out: SAM IC50.
Assay [6] has as its target T1, PRMT5. As to the kind of experiment: PRMT5 biochemical IC50 assay with MTA as cofactor. The note with it: PRMT5, MTA as cofactor; read-out: MTA IC50.

T1 sequence (O14744 whole entry): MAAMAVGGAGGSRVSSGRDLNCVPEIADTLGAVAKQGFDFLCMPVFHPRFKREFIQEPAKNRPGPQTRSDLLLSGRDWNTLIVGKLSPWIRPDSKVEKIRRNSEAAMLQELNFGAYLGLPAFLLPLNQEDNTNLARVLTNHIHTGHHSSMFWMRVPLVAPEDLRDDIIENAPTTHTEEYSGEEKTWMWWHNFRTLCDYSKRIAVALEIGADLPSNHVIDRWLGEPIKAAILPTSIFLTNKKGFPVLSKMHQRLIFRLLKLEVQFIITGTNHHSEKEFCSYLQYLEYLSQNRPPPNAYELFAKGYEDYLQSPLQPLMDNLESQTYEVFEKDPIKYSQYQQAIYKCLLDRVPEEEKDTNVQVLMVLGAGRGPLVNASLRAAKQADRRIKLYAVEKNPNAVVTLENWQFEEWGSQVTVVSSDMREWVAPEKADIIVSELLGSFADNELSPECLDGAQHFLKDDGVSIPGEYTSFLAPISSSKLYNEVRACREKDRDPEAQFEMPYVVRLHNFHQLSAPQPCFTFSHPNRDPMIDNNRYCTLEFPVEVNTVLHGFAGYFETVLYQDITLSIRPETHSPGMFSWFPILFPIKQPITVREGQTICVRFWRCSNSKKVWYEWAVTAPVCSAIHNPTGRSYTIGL
T1 sequence (Q9BQA1 whole entry partner): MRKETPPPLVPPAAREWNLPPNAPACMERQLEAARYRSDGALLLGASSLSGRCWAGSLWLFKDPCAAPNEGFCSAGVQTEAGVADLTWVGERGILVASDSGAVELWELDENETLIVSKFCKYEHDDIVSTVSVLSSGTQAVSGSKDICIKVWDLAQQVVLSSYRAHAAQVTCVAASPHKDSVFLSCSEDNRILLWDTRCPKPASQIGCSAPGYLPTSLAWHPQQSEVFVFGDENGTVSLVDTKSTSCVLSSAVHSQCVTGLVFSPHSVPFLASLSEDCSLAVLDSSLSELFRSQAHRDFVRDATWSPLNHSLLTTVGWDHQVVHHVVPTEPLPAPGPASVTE

For `Cc1ncc(NC(=O)C(=O)N2C[C@@H](C)CC[C@@H]2c2ccc3sc(C4CCN(C)CC4)nc3c2)cc1C1COC1` [Compound 1309, 2-((2R,5S)-5-methyl-2-(2-(1-methylpiperidin-4-yl)benzo[d]thiazol-5-yl)piperidin-1-yl)-N-(6-methyl-5-(oxetan-3-yl)pyridin-3-yl)-2-oxoacetamide], the IC50 on PRMT5 [1] was less than 0.05 µM; in assay [2], less than 0.1 µM; in assay [3] it was less than 1 µM; in assay [4], less than 0.1 µM; at PRMT5 [5] it was less than 0.05 µM; on PRMT5 [6] it was less than 0.05 µM. Also, the “MTAP intact/deleted ratio” value in assay [4] is listed as “A (an IC50 ratio greater than or equal to 10 fold)”.

As to `Cc1cc(NC(=O)C(=O)N2C[C@@H](C)CC[C@@H]2c2ccc3sc(C4CC(C)(C)N(C)C(C)(C)C4)nc3c2)cnc1C` [Compound 1315, N-(5,6-dimethylpyridin-3-yl)-2-((2R,5S)-5-methyl-2-(2-(1,2,2,6,6-pentamethylpiperidin-4-yl)benzo[d]thiazol-5-yl)piperidin-1-yl)-2-oxoacetamide], the IC50 at PRMT5 [1] is less than 0.05 µM; in assay [2] it was 0.1 to 1 µM; in assay [3], less than 1 µM; in assay [4], less than 0.1 µM; on PRMT5 [5], less than 0.05 µM; at PRMT5 [6] it was less than 0.05 µM. The “MTAP intact/deleted ratio” value in assay [4] is on record as “A (an IC50 ratio greater than or equal to 10 fold)”.

In the case of `COc1ncc(NC(=O)C(=O)N2C[C@@H](C)CC[C@@H]2c2ccc3sc(C[C@@H](C)N(C)C)nc3c2)cc1C(N)=O` [Compound 1317, 5-(2-((2R,5S)-2-(2-((R)-2-(dimethylamino)propyl)benzo[d]thiazol-5-yl)-5-methylpiperidin-1-yl)-2-oxoacetamido)-2-methoxynicotinamide], the IC50 on PRMT5 [1] was less than 0.05 µM; in assay [2], less than 0.1 µM; in assay [3], less than 1 µM; in assay [4], less than 0.1 µM; at PRMT5 [5], 0.05 to 0.5 µM; at PRMT5 [6], less than 0.05 µM. In addition, in assay [4], the “MTAP intact/deleted ratio” value was “A (an IC50 ratio greater than or equal to 10 fold)”.

With `CCc1cc(NC(=O)C(=O)N2C[C@@H](C)CC[C@@H]2c2ccc3nn(C4CCN(C)CC4)cc3c2)cnc1N` [Compound 1321, N-(6-Amino-5-ethyl-3-pyridyl)-2-[(2R,5S)-5-methyl-2-[2-(1-methyl-4-piperidyl)indazol-5-yl]-1-piperidyl]-2-oxo-acetamide], the IC50 is less than 0.05 µM at PRMT5 [1]; less than 0.1 µM in assay [2]; less than 1 µM in assay [3]; less than 0.1 µM in assay [4]; less than 0.05 µM on PRMT5 [5]; less than 0.05 µM at PRMT5 [6]. The “MTAP intact/deleted ratio” value in assay [4] is “A (an IC50 ratio greater than or equal to 10 fold)”.

For `CCc1cc(NC(=O)C(=O)N2C[C@@H](C)CC[C@@H]2c2ccc3sc([C@@H](C)CN(C)C)nc3c2)cnc1N` [Compound 1324, N-(6-amino-5-ethylpyridin-3-yl)-2-((2R,5S)-2-(2-(1-(dimethylamino)propan-2-yl)benzo[d]thiazol-5-yl)-5-methylpiperidin-1-yl)-2-oxoacetamide], the IC50 on PRMT5 [1] is less than 0.05 µM; in assay [2] it was less than 0.1 µM; in assay [3] it was less than 1 µM; in assay [4], less than 0.1 µM; on PRMT5 [5] it was less than 0.05 µM; at PRMT5 [6], less than 0.05 µM. Also, the “MTAP intact/deleted ratio” value in assay [4] was “A (an IC50 ratio greater than or equal to 10 fold)”.

On to `CCc1cc(NC(=O)C(=O)N2C[C@@H](C)CC[C@@H]2c2ccc3sc(CN(C)C)nc3c2)cnc1N` [Compound 1325, N-(6-amino-5-ethylpyridin-3-yl)-2-((2R,5S)-2-(2-((dimethylamino)methyl)benzo[d]thiazol-5-yl)-5-methylpiperidin-1-yl)-2-oxoacetamide], for which the IC50 was less than 0.05 µM at PRMT5 [1]; less than 0.1 µM in assay [2]; less than 1 µM in assay [3]; less than 0.1 µM in assay [4]; 0.05 to 0.5 µM on PRMT5 [5]; less than 0.05 µM on PRMT5 [6]. Moreover, in assay [4], the “MTAP intact/deleted ratio” value is listed as “A (an IC50 ratio greater than or equal to 10 fold)”.

Consider `Cc1ncc(NC(=O)C(=O)N2C[C@@H](C)CC[C@@H]2c2ccc3sc(C4CCN(C)CC4)nc3c2)cc1C(N)=O` [Compound 1326, 2-methyl-5-(2-((2R,5S)-5-methyl-2-(2-(1-methylpiperidin-4-yl)benzo[d]thiazol-5-yl)piperidin-1-yl)-2-oxoacetamido)nicotinamide], for which the IC50 at PRMT5 [1] was less than 0.05 µM; in assay [2], 0.1 to 1 µM; in assay [3], less than 1 µM; in assay [4], less than 0.1 µM; on PRMT5 [5], less than 0.05 µM; at PRMT5 [6], less than 0.05 µM. For the same compound, in assay [4], the “MTAP intact/deleted ratio” value is “A (an IC50 ratio greater than or equal to 10 fold)”.

For `CCc1cc(NC(=O)C(=O)N2C[C@@H](C)CC[C@@H]2c2ccc3sc(C4CCN(C5CC5)CC4)nc3c2)cnc1N` [Compound 1330, N-(6-amino-5-ethylpyridin-3-yl)-2-((2R,5S)-2-(2-(1-cyclopropylpiperidin-4-yl)benzo[d]thiazol-5-yl)-5-methylpiperidin-1-yl)-2-oxoacetamide], the IC50 at PRMT5 [1] was less than 0.05 µM; in assay [2], less than 0.1 µM; in assay [3] it was less than 1 µM; in assay [4], less than 0.1 µM; on PRMT5 [5], less than 0.05 µM; on PRMT5 [6] it was less than 0.05 µM. Besides, in assay [4], the “MTAP intact/deleted ratio” value was “A (an IC50 ratio greater than or equal to 10 fold)”.

Regarding `CCN1CCC(c2nc3cc([C@H]4CC[C@H](C)CN4C(=O)C(=O)Nc4cnc(N)c(C)c4)ccc3s2)CC1` [Compound 1335, N-(6-amino-5-methylpyridin-3-yl)-2-((2R,5S)-2-(2-(1-ethylpiperidin-4-yl)benzo[d]thiazol-5-yl)-5-methylpiperidin-1-yl)-2-oxoacetamide], the IC50 on PRMT5 [1] is less than 0.05 µM; in assay [2] it was less than 0.1 µM; in assay [3], less than 1 µM; in assay [4], less than 0.1 µM; at PRMT5 [5], less than 0.05 µM; at PRMT5 [6] it was less than 0.05 µM. The “MTAP intact/deleted ratio” value in assay [4] is recorded as “A (an IC50 ratio greater than or equal to 10 fold)”.

With `CCc1cc(NC(=O)C(=O)N2C[C@@H](C)CC[C@@H]2c2ccc3sc([C@H]4C[C@@H]5CN(C)C[C@@H]5C4)nc3c2)cnc1N` [Compound 1338, N-(6-amino-5-ethylpyridin-3-yl)-2-((2R,5S)-5-methyl-2-(2-((3aR,5r,6aS)-2-methyloctahydrocyclopenta[c]pyrrol-5-yl)benzo[d]thiazol-5-yl)piperidin-1-yl)-2-oxoacetamide], the IC50 was less than 0.05 µM at PRMT5 [1]; less than 0.1 µM in assay [2]; less than 1 µM in assay [3]; less than 0.1 µM in assay [4]; less than 0.05 µM on PRMT5 [5]; less than 0.05 µM at PRMT5 [6]. For the same compound, the “MTAP intact/deleted ratio” value in assay [4] was “A (an IC50 ratio greater than or equal to 10 fold)”.

On to `CCc1cc(NC(=O)C(=O)N2C[C@@H](C)CC[C@@H]2c2ccc3sc(C4CC(C)(C)N(C)C(C)(C)C4)nc3c2)cnc1N` [Compound 1340, N-(6-amino-5-ethylpyridin-3-yl)-2-((2R,5)-5-methyl-2-(2-(1,2,2,6,6-pentamethylpiperidin-4-yl)benzo[d]thiazol-5-yl)piperidin-1-yl)-2-oxoacetamide], for which the IC50 at PRMT5 [1] is less than 0.05 µM; in assay [2], less than 0.1 µM; in assay [3], less than 1 µM; in assay [4], less than 0.1 µM; on PRMT5 [5] it was 0.05 to 0.5 µM; on PRMT5 [6], less than 0.05 µM. Besides, the “MTAP intact/deleted ratio” value in assay [4] was “A (an IC50 ratio greater than or equal to 10 fold)”.

Take `COc1ncc(NC(=O)C(=O)N2C[C@@H](C)CC[C@@H]2c2ccc(CCN(C)C)c(Cl)c2)cc1C(N)=O` [Compound 1341, 5-(2-((2R,5S)-2-(3-chloro-4-(2-(dimethylamino)ethyl)phenyl)-5-methylpiperidin-1-yl)-2-oxoacetamido)-2-methoxynicotinamide]: the IC50 at PRMT5 [1] is less than 0.05 µM; in assay [2], more than 1 µM; in assay [3], less than 1 µM; in assay [4], less than 0.1 µM; at PRMT5 [5], 0.05 to 0.5 µM; on PRMT5 [6], less than 0.05 µM.

For `CCc1cc(NC(=O)C(=O)N2C[C@@H](C)CC[C@@H]2c2cccc([C@H]3CCN(C)C3)c2)cnc1N` [Compound 1342, N-(6-amino-5-ethylpyridin-3-yl)-2-((2R,5S)-5-methyl-2-(3-(1-methylpyrrolidin-3-yl)phenyl)piperidin-1-yl)-2-oxoacetamide], the IC50 on PRMT5 [1] was less than 0.05 µM; in assay [2], 0.1 to 1 µM; in assay [3], less than 1 µM; in assay [4], less than 0.1 µM; on PRMT5 [5], less than 0.05 µM; at PRMT5 [6], less than 0.05 µM. Further, the “MTAP intact/deleted ratio” value in assay [4] is “A (an IC50 ratio greater than or equal to 10 fold)”.

These data come from patent publication US11999727B2 (Tango Therapeutics, Inc., priority 2020, dated 2024).
